According to patent US11066416B2, “Rapafucin derivative compounds and methods of use thereof” (The Johns Hopkins University, priority 2016, dated 2021):

Legend:
Assay type in all cases: cell-based
[1] = system: specific cell lines indicated in each assay; test: Cell proliferation assay (Prolif.), IC50 or single concentration, cell line as indicated in each table; conditions: A549 cells; for Prolif, A549: Table 10; for Rel. Prolif., A549: single concentration, response relative to DMSO
Experimental: (§1) Cell Proliferation Assay (Prolif.) Guo et al. (2018) Nat. Chem. 11:254-63. Specific cell lines are indicated in each assay and cultured in complete growth media. Activity is scored according to the IC50 values relative to DMSO control. “Low” indicates an IC50 greater than 600 nM, “Medium” indicates an IC50 between 300 nM and 600 nM “High” indicates an IC50 less than 300 nM. “Rel.Uptake” refers to uptake activity characterization relative to a single concentration assay. “Low” indicates a response greater than 0.6 times the activity relative to DMSO, “Medium” indicates a response between 0.6 and 0.3 times the activity relative to DMSO, “High” indicates a response less than 0.3 times the activity relative to DMSO.

H929 = test: Cell proliferation assay (Prolif.), H929; conditions: for Prolif. H929: H929 cells, IC50 class relative to DMSO control; for Rel. Prolif., NCI-H929: NCI-H929 cells, single concentration, response relative to DMSO
Experimental: as §1

[2] = system: nucleoside uptake (3H-Thymidine); test: Rel.Uptake: nucleoside uptake, single concentration assay, cell line as indicated in each table; conditions: 293T, nucleoside uptake, response relative to DMSO
Experimental: Nucleoside Uptake Assay (uptake). Nuceloside uptake assays were performed with using 3H-Thymidine as described in Guo et al. (2018) Nat. Chem. 11:254-63. Specific cell lines are indicated in each assay and cultured in complete growth media. Activity is scored according to the IC50 values relative to DMSO control. “Low” indicates an IC50 greater than 600 nM, “Medium” indicates an IC50 between 300 nM and 600 nM “High” indicates an IC50 less than 300 nM. “Rel.Uptake” refers to uptake activity characterization relative to a single concentration assay. “Low” indicates a response greater than 0.6 times the activity relative to DMSO, “Medium” indicates a response between 0.6 and 0.3 times the activity relative to DMSO, “High” indicates a response less than 0.3 times the activity relative to DMSO.

SMILES | Prolif, A549 [1] | Rel. Prolif., A549 [1] | other results
CCCC[C@H]1C(=O)N[C@@H](Cc2ccc3ccccc3c2)C(=O)N(C)[C@@H](COC(C)(C)C)C(=O)NCC(=O)N(C)CCC=CC(=O)OCC(C)(C)C(=O)C(=O)N2CCCC[C@H]2C(=O)O[C@H](CCc2ccc(OC)c(OC)c2)c2cc(ccc2F)OCC(=O)N1C [Compound 573] | low | low | 
CCCC[C@H]1C(=O)N[C@@H](Cc2ccc3ccccc3c2)C(=O)N(C)[C@@H](COC(C)(C)C)C(=O)NCC(=O)N(C)CCC=CC(=O)OCC(C)(C)C(=O)C(=O)N2CCCC[C@H]2C(=O)O[C@H](CCc2ccc(OC)c(OC)c2F)c2cccc(c2)OCC(=O)N1C [Compound 570] | medium | medium | 
CCCC[C@H]1C(=O)N[C@@H](Cc2ccc3ccccc3c2)C(=O)N(C)[C@@H](COC(C)(C)C)C(=O)NCC(=O)N(C)CCC=CC(=O)OCC(C)(C)C(=O)C(=O)N2CCCC[C@H]2C(=O)O[C@H](CCc2cc(O)c(OC)c(OC)c2)c2cccc(c2)OCC(=O)N1C [Compound 566] | medium | medium | 
CCCC[C@H]1C(=O)N[C@@H](Cc2ccc3ccccc3c2)C(=O)N(C)[C@@H](COC(C)(C)C)C(=O)NCC(=O)N(C)CCC=CC(=O)OCC(C)(C)C(=O)C(=O)N2CCCC[C@H]2C(=O)O[C@H](CCc2cc(OC)c(OC)c(OC)c2)c2cccc(c2)OCC(=O)N1C [Compound 560] | medium | medium | 
COc1ccc(CC[C@H]2OC(=O)[C@@H]3CCCCN3C(=O)C(=O)C(C)(C)COC(=O)C=CCCN(C)C(=O)[C@@H](Cc3ccccc3)NC(=O)CN(C)C(=O)[C@@H](Cc3ccccc3)NC(=O)[C@H](Cc3ccc(OC(=O)N4CCOCC4)cc3)N(C)C(=O)CCC(=O)Nc3cccc2c3)cc1OC [Compound 869] |  |  | Prolif. H929 (H929): low; Rel. Prolif., NCI-H929 (H929): low
COc1ccc(CC[C@H]2OC(=O)[C@@H]3CCCCN3C(=O)C(=O)C(C)(C)COC(=O)C=CCCN(C)C(=O)[C@@H](Cc3ccccc3)NC(=O)CN(C)C(=O)[C@@H](Cc3ccccc3)NC(=O)[C@H](Cc3ccc(OC(=O)N4CCOCC4)cc3)NC(=O)COc3cccc2c3)cc1OC [Compound 877] |  |  | Prolif. H929 (H929): low; Rel. Prolif., NCI-H929 (H929): kmv
CCCC[C@H]1C(=O)N[C@@H](Cc2ccc3ccccc3c2)C(=O)N(C)[C@@H](COC(C)(C)C)C(=O)NCC(=O)N(C)CCC=CC(=O)OCC(C)(C)C(=O)C(=O)N2CCCC[C@H]2C(=O)O[C@H](CCc2c(OC)ccc(OC)c2OC)c2cccc(c2)OCC(=O)N1C [Compound 564] | low | low | 
CC[C@H](C)[C@H]1C(=O)NCC(=O)N(C)CC/C=C\C(=O)OCC(C)(C)C(=O)C(=O)N2CCCC[C@H]2C(=O)O[C@H](CCc2ccc(OC)c(OC)c2)c2cccc(c2)NC(=O)CCC(=O)N(C)[C@@H](CC(C)C)C(=O)N[C@H](Cc2ccccc2)C(=O)N1C [Compound 1592] |  |  | IC50 ([1]; Homo sapiens, Table 17): < 0.3 µM; Rel. Uptake, 293T [2]: Low (“Low” indicates a response greater than 0.6 times the activity relative to DMSO)
CCCC[C@H]1C(=O)N[C@@H](Cc2ccc3ccccc3c2)C(=O)N(C)[C@@H](COC(C)(C)C)C(=O)NCC(=O)N(C)CCC=CC(=O)OCC(C)(C)C(=O)C(=O)N2CCCC[C@H]2C(=O)O[C@H](CCc2cc(OC)c(OC)cc2OC)c2cccc(c2)OCC(=O)N1C [Compound 562] | medium | medium | 
CCCC[C@H]1C(=O)N[C@@H](Cc2ccc3ccccc3c2)C(=O)N(C)[C@@H](COC(C)(C)C)C(=O)NCC(=O)N(C)CCC=CC(=O)OCC(C)(C)C(=O)C(=O)N2CCCC[C@H]2C(=O)O[C@H](CCc2cc(F)c(OC)c(OC)c2)c2cccc(c2)OCC(=O)N1C [Compound 568] | medium | medium | 
CCCC[C@H]1C(=O)N[C@@H](Cc2ccc3ccccc3c2)C(=O)N(C)[C@@H](COC(C)(C)C)C(=O)NCC(=O)N(C)CCC=CC(=O)OCC(C)(C)C(=O)C(=O)N2CCN(C(=O)OCC3c4ccccc4-c4ccccc43)C[C@H]2C(=O)O[C@H](CCc2ccc(OC)c(OC)c2)c2cccc(c2)OCC(=O)N1C [Compound 571] | low | low | 
CCCC[C@H]1C(=O)N[C@@H](Cc2ccc3ccccc3c2)C(=O)N(C)[C@@H](COC(C)(C)C)C(=O)NCC(=O)N(C)CCC=CC(=O)OCC(C)(C)C(=O)C(=O)N2CCCC[C@H]2C(=O)O[C@H](CCc2ccc(OC)c(OC)c2OC)c2cccc(c2)OCC(=O)N1C [Compound 561] | medium | medium | 
CCCC[C@H]1C(=O)N[C@@H](Cc2ccc3ccccc3c2)C(=O)N(C)[C@@H](COC(C)(C)C)C(=O)NCC(=O)N(C)CCC=CC(=O)OCC(C)(C)C(=O)C(=O)N2CCCC[C@H]2C(=O)O[C@H](CCc2ccc(OC)c(O)c2)c2cccc(c2)OCC(=O)N1C [Compound 1564] | high |  | Rel. Uptake, 293T [2]: high
CCCC[C@H]1C(=O)N[C@@H](Cc2ccc3ccccc3c2)C(=O)N(C)[C@@H](COC(C)(C)C)C(=O)NCC(=O)N(C)CCC=CC(=O)OCC(C)(C)C(=O)C(=O)N2CCCC[C@H]2C(=O)O[C@H](CCc2ccc(OC)c(OC)c2)c2cccc(c2F)OCC(=O)N1C [Compound 1563] | high |  | Rel. Uptake, 293T [2]: high
CCCC[C@H]1C(=O)N[C@@H](Cc2ccc3ccccc3c2)C(=O)N(C)[C@@H](COC(C)(C)C)C(=O)NCC(=O)N(C)CCC=CC(=O)OCC(C)(C)C(=O)C(=O)N2CCCC[C@H]2C(=O)O[C@H](CCc2cc(OC)c(OC)cc2F)c2cccc(c2)OCC(=O)N1C [Compound 569] | medium | medium | 
COc1ccc(CC[C@H]2OC(=O)[C@@H]3CCCCN3C(=O)C(=O)C(C)(C)COC(=O)C=CCCN(C)C(=O)[C@@H](Cc3ccccc3)NC(=O)CN(C)C(=O)[C@@H](Cc3ccccc3)NC(=O)[C@H](Cc3ccc(OC(=O)N4CCOCC4)cc3)N(C)C(=O)COc3cccc2c3F)cc1OC [Compound 867] |  |  | Prolif. H929 (H929): low; Rel. Prolif., NCI-H929 (H929): low
CCCC[C@H]1C(=O)N[C@@H](Cc2ccc3ccccc3c2)C(=O)N(C)[C@@H](COC(C)(C)C)C(=O)NCC(=O)N(C)CCC=CC(=O)OCC(C)(C)C(=O)C(=O)N2CCCC[C@H]2C(=O)O[C@H](CCc2cc(OC)cc(OC)c2OC)c2cccc(c2)OCC(=O)N1C [Compound 563] | low | low | 
CCCC[C@H]1C(=O)N[C@@H](Cc2ccc3ccccc3c2)C(=O)N(C)[C@@H](COC(C)(C)C)C(=O)NCC(=O)N(C)CCC=CC(=O)OCC(C)(C)C(=O)C(=O)N2CCCC[C@H]2C(=O)O[C@H](CCc2ccc(OC)c(OC)c2)c2cc(F)cc(c2)OCC(=O)N1C [Compound 574] | low | low | 
CCCC[C@H]1C(=O)N[C@@H](Cc2ccc3ccccc3c2)C(=O)N(C)[C@@H](COC(C)(C)C)C(=O)NCC(=O)N(C)CCC=CC(=O)OCC(C)(C)C(=O)C(=O)N2CCCC[C@H]2C(=O)O[C@H](CCc2ccc(OC)c(OC)c2O)c2cccc(c2)OCC(=O)N1C [Compound 565] | medium | medium | 
COc1ccc(CC[C@H]2OC(=O)[C@@H]3CCCCN3C(=O)C(=O)C(C)(C)COC(=O)C=CCCN(C)C(=O)[C@@H](Cc3ccccc3)NC(=O)CN(C)C(=O)[C@@H](Cc3ccccc3)NC(=O)[C@H](Cc3ccc(OC(=O)N4CCOCC4)cc3)N(C)C(=O)COc3cc(F)cc2c3)cc1OC [Compound 868] |  |  | Prolif. H929 (H929): low; Rel. Prolif., NCI-H929 (H929): low
CCCC[C@H]1C(=O)N[C@@H](Cc2ccc3ccccc3c2)C(=O)N(C)[C@@H](COC(C)(C)C)C(=O)NCC(=O)N(C)CCC=CC(=O)OCC(C)(C)C(=O)C(=O)N2CCCC[C@H]2C(=O)O[C@H](CCc2cc(OC)c(OC)cc2O)c2cccc(c2)OCC(=O)N1C [Compound 567] | medium | medium | 
CCCC[C@H]1C(=O)N[C@@H](Cc2ccc3ccccc3c2)C(=O)N(C)[C@@H](COC(C)(C)C)C(=O)NCC(=O)N(C)CCC=CC(=O)OCC(C)(C)C(=O)C(=O)N2CCN(C)C[C@H]2C(=O)O[C@H](CCc2ccc(OC)c(OC)c2)c2cccc(c2)OCC(=O)N1C [Compound 572] | medium | medium | 
CCCC[C@H]1C(=O)N[C@@H](Cc2ccc3ccccc3c2)C(=O)N(C)[C@@H](COC(C)(C)C)C(=O)NCC(=O)N(C)CCC=CC(=O)OCC(C)(C)C(=O)C(=O)N2CCCC[C@H]2C(=O)O[C@H](CCc2ccc(OC)c(OC)c2)c2ccc(F)c(c2)OCC(=O)N1C [Compound 576] | medium | medium | 
CCCC[C@H]1C(=O)N[C@@H](Cc2ccc3ccccc3c2)C(=O)N(C)[C@@H](COC(C)(C)C)C(=O)NCC(=O)N(C)CCC=CC(=O)OCC(C)(C)C(=O)C(=O)N2CCCC[C@H]2C(=O)O[C@H](CCc2ccc(OC)c(OC)c2)c2cncc(c2)OCC(=O)N1C [Compound 1565] | low |  | Rel. Uptake, 293T [2]: low
